According to patent US8058242B2, “Chimeric proteins with natriuretic activity” (The University of Queensland, priority 2004, dated 2011):
Several values for one entry are separate records, joined by “and”; a condition that tells them apart may be missing. Equal entries are not always repeated. Positions of bridges follow the written chain, without caps; N, C: chain ends. Residues, ends and D or L forms follow the SMILES beside them.

Experiments:
[1] = system: denuded aortic rings, GC A receptor; assay: Relaxation of noradrenaline constricted endothelium-denuded aortic rings (Example 11); parameters: species or system rat; settings: GC-A mediated
Protocol: Male Sprague Dawley rats were killed and the descending thoracic aorta rapidly removed and flushed with physiological solution. After being cleared of adhering fat and connective tissue, 5 mm rings were mounted under 10 g resting tension, between two stainless steel hooks, in organ baths (37° C.) containing carbogenated (95% O2 and 5% CO2) physiological salt solution of the following composition (mM): NaCl, 118.4; NaHCO3, 25; glucose, 11; KCl, 4.7; MgSO4, 1.2; KH2PO4, 1.2 and CaCl2, 2.5. The lower hook was attached to a tissue holder and the upper hook to a force displacement transducer (Grass FTO3). Where indicated endothelial cells were removed by gentle rubbing of the intimal surface with a wire. To confirm the presence or absence of endothelial cells, tissues were precontracted with a sub-maximal concentration of phenylephrine (0.3 μM) and the response to acetylcholine (ACh, 10 μM) observed. Ach-induced relaxation greater than 80% of maximum indicated the presence of endothelium; whereas Ach-induced relaxation less than 10% indicated the absence of endothelium. Ring preparations under resting tension were conditioned by two contraction/relaxation cycles with 40 mM KCl, contracted by a third application of 40 mM KCl and then relaxed with different doses of the venom peptides. Responses were expressed as a percentage relaxation of the precontraction by KCl.
In addition to the peptides tested in example 3, a series of 13 analogs corresponding to the 2a, 2b and 2c grouping of peptides were examined for their ability to dilate noradrenaline constricted aortic rings. The degree of constriction was expressed as a percentage of the KCl induced constriction. The aortic rings were prepared in a manner similar to the method described in example 3. […]. In each case there were at least 3 separate aortic rings tested per peptide and all were denuded of endothelium to ensure responses were confined to the GC A receptor.

[2] = target: T1, Natriuretic Peptide Receptor-A (NPR-A) signaling in MDCK cells (Canis lupus familiaris, UniProt A0A8I3MHU3); format: cell-based, canine; settings: stimulation of cGMP accumulation in MDCK cells; for EC50: read-out: EC50 (M) ± Standard Error
T1 sequence (A0A8I3MHU3 32-1060): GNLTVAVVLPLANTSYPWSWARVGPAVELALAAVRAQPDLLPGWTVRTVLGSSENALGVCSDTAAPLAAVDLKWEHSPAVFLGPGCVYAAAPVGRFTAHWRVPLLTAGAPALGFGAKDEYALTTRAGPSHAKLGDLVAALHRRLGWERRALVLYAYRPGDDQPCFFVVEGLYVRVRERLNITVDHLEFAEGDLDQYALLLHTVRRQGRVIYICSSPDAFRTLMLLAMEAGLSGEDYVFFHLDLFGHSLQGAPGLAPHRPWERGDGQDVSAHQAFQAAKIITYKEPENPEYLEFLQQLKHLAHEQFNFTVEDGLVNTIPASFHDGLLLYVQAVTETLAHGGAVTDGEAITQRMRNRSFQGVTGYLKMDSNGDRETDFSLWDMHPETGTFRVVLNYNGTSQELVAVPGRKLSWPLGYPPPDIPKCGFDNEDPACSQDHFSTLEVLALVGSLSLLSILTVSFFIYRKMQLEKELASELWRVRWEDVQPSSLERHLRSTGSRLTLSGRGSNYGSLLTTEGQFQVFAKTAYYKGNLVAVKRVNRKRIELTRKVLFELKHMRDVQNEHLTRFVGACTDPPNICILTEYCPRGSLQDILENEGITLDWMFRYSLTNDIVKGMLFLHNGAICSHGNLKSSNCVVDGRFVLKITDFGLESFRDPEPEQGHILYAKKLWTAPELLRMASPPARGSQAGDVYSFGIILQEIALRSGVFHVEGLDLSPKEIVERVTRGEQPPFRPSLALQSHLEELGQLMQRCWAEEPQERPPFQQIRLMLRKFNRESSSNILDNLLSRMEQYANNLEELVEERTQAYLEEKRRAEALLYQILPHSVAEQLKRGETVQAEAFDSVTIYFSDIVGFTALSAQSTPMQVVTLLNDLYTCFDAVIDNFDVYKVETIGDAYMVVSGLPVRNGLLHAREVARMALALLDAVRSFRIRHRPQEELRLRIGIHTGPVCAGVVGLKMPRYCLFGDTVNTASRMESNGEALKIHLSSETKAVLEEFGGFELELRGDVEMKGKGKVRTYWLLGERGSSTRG

conscious rabbits = assay: Blood pressure and heart rate in conscious rabbits, intravenous infusion dose-response (Example 8); settings: for recovery of MAP, in words: 2 hours after infusion; for MAP at final dose / Recovery (MAP) / Recovery Delta SED (MAP) / Treatment Effect, change of mean blood pressure during the infusion: Table 10B; for Recovery (MAP) / Recovery Delta SED (MAP): after a 2 hour recovery period; for Treatment Effect, change of mean blood pressure during the infusion: final dose, groups 2B and 2C

Compound	Mean relaxation SEM of denuded aortic rings expressed as % of KCl response [1]	−Log10 EC50 (pEC50) ± Standard Error [2]	EC50 [2] [M]	recovery of MAP, in words (conscious rabbits)	MAP at final dose (conscious rabbits) [mm Hg]	Recovery (MAP) (conscious rabbits) [mm Hg]	Recovery Delta SED (MAP) (conscious rabbits) [mm Hg]	Treatment Effect, change of mean blood pressure during the infusion (conscious rabbits) [mm Hg]
CC[C@H](C)[C@@H]1NC(=O)[C@H](CCCNC(=N)N)NC(=O)[C@H](CC(=O)O)NC(=O)[C@H](CC(C)C)NC(=O)[C@@H]2CCCN2C(=O)[C@H](Cc2ccccc2)NC(=O)CNC(=O)[C@H](Cc2ccccc2)NC(=O)[C@@H](NC(=O)[C@@H]2CCCN2C(=O)[C@H](CC(=O)O)NC(=O)[C@H](Cc2ccc(O)cc2)NC(=O)[C@H](CCCCN)NC(=O)[C@@H](NC(=O)[C@@H](N)CCC(=O)O)C(C)C)CSSC[C@@H](C(=O)N[C@@H](CC(N)=O)C(=O)N[C@@H](CCCNC(=N)N)C(=O)N[C@H](C(=O)N[C@@H](CCSC)C(=O)N[C@@H](CCC(N)=O)C(=O)N[C@@H](CC(N)=O)C(=O)N2CCC[C@H]2C(=O)N2CCC[C@H]2C(=O)N[C@@H](CCCCN)C(=O)N[C@@H](CCCCN)C(=O)N[C@@H](Cc2ccccc2)C(=O)N[C@@H](CO)C(=O)NCC(=O)N[C@@H](CCC(=O)O)C(=O)O)[C@@H](C)CC)NC(=O)CNC(=O)[C@H](CC(C)C)NC(=O)CNC(=O)[C@H](CO)NC(=O)[C@H](C(C)C)NC(=O)[C@H](CO)NC(=O)CNC1=O [TNPc DTT] (H-EVKYDPCFGFPLDRIGSVSGLGCNRIMQNPPKKFSGE-OH; disulfide 7-23; N-terminus assumed)	58.9 ± 6.7%	7.723 ± 0.1425	2.12e-08	partially recovered	58.6	70.3	11.7 ± 5.2	−12.4
CC[C@H](C)[C@H](NC(=O)[C@H](CCCCN)NC(=O)[C@H](CO)NC(=O)[C@H](CC(=O)O)NC(=O)[C@@H](N)CO)C(=O)NCC(=O)N[C@@H](CCCCN)C(=O)NCC(=O)N[C@H]1CSSC[C@@H](C(=O)N[C@@H](CC(N)=O)C(=O)N[C@@H](CCCNC(=N)N)C(=O)N[C@H](C(=O)N[C@@H](CCSC)C(=O)N[C@@H](CCC(N)=O)C(=O)N[C@@H](CC(N)=O)C(=O)N2CCC[C@H]2C(=O)N2CCC[C@H]2C(=O)N[C@@H](CCCCN)C(=O)N[C@@H](CCCCN)C(=O)N[C@@H](Cc2ccccc2)C(=O)N[C@@H](CO)C(=O)NCC(=O)N[C@@H](CCC(=O)O)C(=O)O)[C@@H](C)CC)NC(=O)CNC(=O)[C@H](CC(C)C)NC(=O)CNC(=O)[C@H](CO)NC(=O)[C@H](C(C)C)NC(=O)[C@H](CO)NC(=O)CNC(=O)[C@H]([C@@H](C)CC)NC(=O)[C@H](CCCNC(=N)N)NC(=O)[C@H](CC(=O)O)NC(=O)[C@H](CC(C)C)NC(=O)[C@@H]2CCCN2C(=O)[C@H](Cc2ccccc2)NC(=O)CNC(=O)[C@H](Cc2ccccc2)NC1=O [TNPc K7] (H-SDSKIGKGCFGFPLDRIGSVSGLGCNRIMQNPPKKFSGE-OH; disulfide 9-25; N-terminus assumed)	50% and 46.1 ± 13.5%	7.443 ± 0.2700	5.28e-08	did not recover after 2 hours	59.0	62.4	3.4 ± 1.9	−14.1
